# Results taken from US9643964B2, “3-(2-aminopyrimidin-4-yl)-5-(3-hydroxypropynyl)-1H-pyrrolo[2,3-C]pyridine derivatives as NIK inhibitors for the treatment of cancer” (Janssen Pharmaceutica NV, priority 2013, dated 2017).
# Assays:
# [1] = molecular target: Recombinant Human NF-kappaB-Inducing Kinase (NIK/MAP3K14) (Homo sapiens, UniProt Q99558); assay: Biological Assay A2: inhibition of auto-phosphorylation of recombinant human NIK/MAP3K14 (AlphaScreen); type: biochemical; conditions: auto-phosphorylation; averaged over all measurements on all batches; read-out: αscreen IC50
# Sequence of Recombinant Human NF-kappaB-Inducing Kinase (NIK/MAP3K14) (Q99558 whole entry): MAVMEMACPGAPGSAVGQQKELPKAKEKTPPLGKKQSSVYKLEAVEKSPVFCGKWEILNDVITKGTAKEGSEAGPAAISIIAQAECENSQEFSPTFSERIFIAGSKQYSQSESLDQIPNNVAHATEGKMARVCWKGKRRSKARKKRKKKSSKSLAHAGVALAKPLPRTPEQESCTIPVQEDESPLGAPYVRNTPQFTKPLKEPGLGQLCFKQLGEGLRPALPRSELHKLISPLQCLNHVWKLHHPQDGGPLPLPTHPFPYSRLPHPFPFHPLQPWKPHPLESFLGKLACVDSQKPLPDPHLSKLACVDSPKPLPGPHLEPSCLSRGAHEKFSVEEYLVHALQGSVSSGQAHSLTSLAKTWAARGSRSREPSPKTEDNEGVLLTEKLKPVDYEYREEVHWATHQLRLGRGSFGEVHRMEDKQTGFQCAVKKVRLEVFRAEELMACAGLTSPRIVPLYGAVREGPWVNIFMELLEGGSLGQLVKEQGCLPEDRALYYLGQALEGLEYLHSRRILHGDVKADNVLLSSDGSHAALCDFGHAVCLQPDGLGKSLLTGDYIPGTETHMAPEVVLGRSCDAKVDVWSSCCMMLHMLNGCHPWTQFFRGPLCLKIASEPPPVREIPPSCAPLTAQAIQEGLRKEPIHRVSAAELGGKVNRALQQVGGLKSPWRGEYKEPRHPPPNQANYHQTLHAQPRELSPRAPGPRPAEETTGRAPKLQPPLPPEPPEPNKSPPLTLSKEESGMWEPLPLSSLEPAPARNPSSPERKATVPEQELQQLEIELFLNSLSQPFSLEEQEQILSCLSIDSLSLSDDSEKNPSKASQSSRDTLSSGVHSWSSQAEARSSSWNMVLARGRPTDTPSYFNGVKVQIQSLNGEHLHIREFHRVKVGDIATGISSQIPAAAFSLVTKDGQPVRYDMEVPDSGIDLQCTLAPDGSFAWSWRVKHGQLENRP
# Description: Inhibition of Auto-Phosphorylation of Recombinant Human NF-kappaB-Inducing Kinase (NIK/MAP3K14) Activity (AlphaScreen®)
# NIK/MAP3K14 auto-phosphorylation activity was measured using the AlphaScreen® (αscreen) format (Perkin Elmer). All compounds tested were dissolved in dimethyl sulfoxide (DMSO) and further dilutions were made in assay buffer. Final DMSO concentration was 1% (v/v) in assays. Assay buffer was 50 mM Tris pH 7.5 containing 1 mM EGTA (ethylene glycol tetraacetic acid), 1 mM DTT (dithiothreitol), 0.1 mM Na3VO4, 5 mM MgCl2, 0.01% Tween 20. Assays were carried out in 384 well Alphaplates (Perkin Elmer). Incubations consisted of compound, 25 microM Adenosine-5′-triphosphate (ATP), and 0.2 nM NIK/MAP3K14. Incubations were initiated by addition of GST-tagged NIK/MAP3K14 enzyme, carried out for 1 h at 25° C. and terminated by addition of stop buffer containing anti-phospho-IKK Ser176/180 antibody. Protein A Acceptor and Glutathione-Donor beads were added before reading using an EnVision® Multilabel Plate Reader (Perkin Elmer). Signal obtained in the wells containing blank samples was subtracted from all other wells and IC50's were determined by fitting a sigmoidal curve to % inhibition of control versus Log10 compound concentration.
# LP-1 cells = assay: Biological Assay C: antiproliferative activity on LP-1 cells (CellTiter-Glo); type: cell-based, human; conditions: 72 hr treatment, averaged values
# Description: (§1) Determination of Antiproliferative Activity on LP-1, L-363 and JJN-3 Cells
# (§2) All compounds tested were dissolved in DMSO and further dilutions were made in culture medium. Final DMSO concentration was 0.3% (v/v) in cell proliferation assays. Viability was assessed using CellTiter-Glo cell viability assay kit (Promega). The human LP-1, L-363 and JJN-3 cells (DSMZ) were cultured in RPMI 1640 medium supplemented with 2 mM L-glutamine, and 10% fetal calf serum (PAA). Cells were routinely kept as suspension cells at 37° C. in a humidified 5% CO2 atmosphere. Cells were passaged at a seeding density of 0.2×10^6/ml twice a week. Cells were seeded in black tissue culture treated 96-well plates (Perkin Elmer). Densities used for plating ranged from 2,000 to 6,000 cells per well in a total volume of 75 μl medium. After twenty four hours, drugs and/or solvents were added (25 μl) to a final volume of 100 μl. Following 72 hr of treatment plates were removed from the incubator and allowed to equilibrate to room temperature for approx 10 min. 100 μl CellTiter-Glo reagent was added to each well that was then covered (Perkin Elmer Topseal) and shaken on plate shaker for 10 min. Luminescence was measured on a HTS Topcount (Perkin Elmer). Within an experiment, the results for each treatment were the mean of 2 replicate wells. For initial screening purposes, compounds were tested using a 9 point dilution curve (serial 1:3 dilutions). For each experiment, controls (containing no drug) and a blank incubation (containing cells read at the time of compound addition) were run in parallel. The blank value was subtracted from all control and sample values. For each sample, the mean value for cell growth (in relative light units) was expressed as a percentage of the mean value for cell growth of the control.
# L-363 cells = assay: Biological Assay C: antiproliferative activity on L-363 cells (CellTiter-Glo); type: cell-based, human; conditions: 72 hr treatment, averaged values
# Description: as §1, §2
# JJN-3 cells = assay: Biological Assay C: antiproliferative activity on JJN-3 cells (CellTiter-Glo); type: cell-based, human; conditions: 72 hr treatment, averaged values
# Description: as §1, §2
Structure (SMILES),IC50 [1] [nM],EC50 (LP-1 cells) [nM],EC50 (L-363 cells) [nM],EC50 (JJN-3 cells) [nM],"EC50 (L-363 cells; Homo sapiens, L-363, 72 h) [nM]","EC50 (JJN-3 cells; Homo sapiens, JJN-3, 72 h) [nM]","EC50 (LP-1 cells; Homo sapiens, LP-1, 72 h) [nM]"
"COCCCn1cc(-c2nc(N)ncc2F)c2cc(C#CC(C)(O)C3CC3)ncc21 (single isomer, unassigned) [Compound 119]",230,2100,900,700,–,–,–
"CC(O)(C#Cc1cc2c(-c3nc(N)ncc3F)cn(C3COC3)c2cn1)C1CC1 (single isomer, unassigned) [Compound 121]",680,3400,1300,1400,–,–,–
"CC(O)(C#Cc1cc2c(-c3nc(N)ncc3F)cn(C3CN(C4CC4)C3)c2cn1)C1CC1 (single isomer, unassigned) [Compound 157]",46,–,–,–,140,180,–
CC(C)(O)C#Cc1cc2c(-c3nc(N)ncc3C#N)cn(CC3CCOCC3)c2cn1 [Compound 75],35,–,–,–,670,540,> 10000
CN1CCC(n2cc(-c3ccnc(N)n3)c3cc(C#CC(C)(C)O)ncc32)CC1 [Compound 77],88,–,–,–,320,570,4000
CC(C)N1CCC(n2cc(-c3ccnc(N)n3)c3cc(C#CC(C)(C)O)ncc32)CC1 [Compound 78],130,–,–,–,410,580,2000
CCN1CCC(n2cc(-c3ccnc(N)n3)c3cc(C#CC(C)(C)O)ncc32)CC1 [Compound 79],47,–,–,–,61,160,2000
COCc1cnc(N)nc1-c1cn(C(C)C)c2cnc(C#CC(C)(O)C3CC3)cc12 (stereo not drawn) [Compound 143],74,–,–,–,170,270,–
COCc1cnc(N)nc1-c1cn(C(C)C)c2cnc(C#CC(C)(C)O)cc12 [Compound 144],37,–,–,–,16,35,–
CC(O)(C#Cc1cc2c(-c3nc(N)ncc3F)cn(C3CN(CC(F)(F)F)C3)c2cn1)C1CC1 (stereo not drawn) [Compound 145],140,–,–,–,340,260,–
CC(O)(C#Cc1cc2c(-c3nc(N)ncc3F)cn(C3CN(CC4CCCC4)C3)c2cn1)C1CC1 (stereo not drawn) [Compound 146],200,–,–,–,580,450,–
CCCCC(=O)NCCCn1cc(-c2ccnc(N)n2)c2cc(C#CC(C)(C)O)ncc21 [Compound 147],130,–,–,–,530,1400,–
CC(=O)NCCCn1cc(-c2ccnc(N)n2)c2cc(C#CC(C)(C)O)ncc21 [Compound 148],64,–,–,–,7600,9100,–
COc1cnc(N)nc1-c1cn(C(C)C)c2cnc(C#CC(C)(O)C3CC3)cc12 (stereo not drawn) [Compound 149],22,–,–,–,22,38,–
CC(C)n1cc(-c2nc(N)ncc2F)c2cc(C#CC3(O)CCN(C)C3=O)ncc21 (stereo not drawn) [Compound 150],210,–,–,–,1500,1600,–
CC(C)(O)C#Cc1cc2c(-c3nc(N)ncc3F)cn(C3CCN(CCF)C3)c2cn1 (stereo not drawn) [Compound 151],54,–,–,–,45,46,–
CC(O)(C#Cc1cc2c(-c3nc(N)ncc3F)cn(C3CCN(CCC(F)(F)F)C3)c2cn1)C1CC1 (stereo not drawn) [Compound 152],47,–,–,–,75,48,–
CC(O)(C#Cc1cc2c(-c3nc(N)ncc3F)cn(C3CCN(CCF)C3)c2cn1)C1CC1 (stereo not drawn) [Compound 153],74,–,–,–,150,130,–
CC(=O)N1CC(n2cc(-c3nc(N)ncc3F)c3cc(C#CC(C)(O)C4CC4)ncc32)C1 (stereo not drawn) [Compound 154],190,–,–,–,2800,4700,–
COCCN1CC(n2cc(-c3nc(N)ncc3F)c3cc(C#CC(C)(O)C4CC4)ncc32)C1 (stereo not drawn) [Compound 155],140,–,–,–,380,400,–
COCCCN1CC(n2cc(-c3nc(N)ncc3F)c3cc(C#CC(C)(O)C4CC4)ncc32)C1 (stereo not drawn) [Compound 156],190,–,–,–,360,320,–
